Experimental data as given in ChEMBL document CHEMBL4177585, “Discovery of berberine based derivatives as anti-influenza agent through blocking of neuraminidase” (Bioorg Med Chem, 2017).
Calls of active or inactive are those of the source. No cut-off for these calls is given here.

How the values were obtained:
[1] = system: Influenza A virus; test: Antiviral activity against Influenza A virus (A/Puerto Rico/8/1934(H1N1)) infected in MDCK cells assessed as reduction in virus-induced cytopathogenicity at 1 ug/ml treated before virus infection and measured after 48 hrs by SRB assay relative to untreated control; type: functional
[2] = system: Influenza A virus; test: Antiviral activity against Influenza A virus (A/Puerto Rico/8/1934(H1N1)) infected in MDCK cells assessed as reduction in virus-induced cytopathogenicity incubated for 48 hrs by SRB assay; type: functional, organism-based
[3] = system: Influenza B virus; test: Antiviral activity against Influenza B virus (B/Lee/40) infected in MDCK cells assessed as reduction in virus-induced cytopathogenicity incubated for 48 hrs by SRB assay; type: functional, organism-based; conditions: B/Lee/1940, MDCK
[4] = system: Influenza A virus; test: Antiviral activity against Influenza A virus (A/Puerto Rico/8/1934(H1N1)) infected in MDCK cells assessed as reduction in virus-induced cytopathogenicity at 1 ug/ml pre-incubated for 1 hr with virus before virus infection of cells and measured after 48 hrs by SRB assay; type: functional, organism-based
[5] = molecular target: Neuraminidase (Influenza A virus (A/Puerto Rico/8/1934(H1N1)), UniProt P03468); test: Inhibition of neuraminidase in influenza A virus (A/Puerto Rico/8/1934(H1N1)) pre-incubated for 30 mins before NA-Star substrate addition for 30 mins by luminescence based assay
[6] = system: Influenza A virus; test: Antiviral activity against Influenza A virus (A/Victoria/3/1975(H3N2)) infected in MDCK cells assessed as reduction in virus-induced cytopathogenicity incubated for 48 hrs by SRB assay; type: functional, organism-based
[7] = system: Influenza B virus; test: Antiviral activity against Influenza B virus (B/Maryland/1/59) infected in MDCK cells assessed as reduction in virus-induced cytopathogenicity incubated for 48 hrs by SRB assay; type: functional, organism-based
[8] = Cytotoxicity against MDCK cells incubated for 48 hrs assessed as reduction in cell viability by SRB assay; type: cell-based, Canis lupus familiaris; conditions: dog

Neuraminidase (Influenza A virus (A/Puerto Rico/8/1934(H1N1)), UniProt P03468), sequence (P03468 whole entry): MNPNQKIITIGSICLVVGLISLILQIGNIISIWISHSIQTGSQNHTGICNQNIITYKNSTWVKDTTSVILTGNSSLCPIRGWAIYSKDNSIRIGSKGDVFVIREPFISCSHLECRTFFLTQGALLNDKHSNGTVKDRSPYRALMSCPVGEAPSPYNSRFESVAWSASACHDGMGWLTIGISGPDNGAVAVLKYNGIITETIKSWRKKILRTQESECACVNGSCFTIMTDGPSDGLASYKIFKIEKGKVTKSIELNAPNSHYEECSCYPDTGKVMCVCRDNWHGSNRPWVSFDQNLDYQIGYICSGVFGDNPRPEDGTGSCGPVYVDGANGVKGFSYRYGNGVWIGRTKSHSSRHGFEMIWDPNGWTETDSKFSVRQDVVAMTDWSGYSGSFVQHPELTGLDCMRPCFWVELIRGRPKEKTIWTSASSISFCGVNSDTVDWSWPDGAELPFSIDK

SMILES	inhibition at 1 µg/mL [1] [%]	IC50 [2] [µg/mL]	IC50 [3] [µg/mL]	Activity [4]	Ki [5] [nM]	IC50 [6] [µg/mL]	IC50 [7] [µg/mL]	CC50 at 48 h [8] [µg/mL]
COc1cc(CN2CCN(c3ccccc3Cl)CC2)c2cc3[n+](cc2c1O)CCc1cc2c(cc1-3)OCO2.[Cl-]	22.1	1.63	6.33	Active	2650	2.98	4.17	401
COc1cc(CN2CCN(c3ccccc3[N+](=O)[O-])CC2)c2cc3[n+](cc2c1O)CCc1cc2c(cc1-3)OCO2.[Cl-]	–	> 50	–	–	1340	–	–	230
COc1cc(CN2CCN(C(c3ccccc3)c3ccccc3)CC2)c2cc3[n+](cc2c1O)CCc1cc2c(cc1-3)OCO2.[Cl-]	–	3.14	–	–	490	–	–	–
COc1cc(CN2CCN(c3ccc([N+](=O)[O-])cc3)CC2)c2cc3[n+](cc2c1O)CCc1cc2c(cc1-3)OCO2.[Cl-]	–	> 50	–	–	1330	–	–	1380
COc1ccc2cc3[n+](cc2c1OC)CCc1cc2c(cc1-3)OCO2 [BERBERINE]	12.1	31.3	–	Active	14300	–	–	70.2
COc1cc(CN2CCN(c3ccc(C)cc3C)CC2)c2cc3[n+](cc2c1O)CCc1cc2c(cc1-3)OCO2.[Cl-]	–	60.1	–	–	420	–	–	134
COc1cc(CN2CCN(c3ccc(F)cc3F)CC2)c2cc3[n+](cc2c1O)CCc1cc2c(cc1-3)OCO2.[Cl-]	–	9.92	–	–	410	–	–	73.9
COc1cc(CN2CCN(c3ccc(OC(F)(F)F)cc3)CC2)c2cc3[n+](cc2c1O)CCc1cc2c(cc1-3)OCO2.[Cl-]	–	8.45	–	–	490	–	–	312
COc1cc(CN2CCN(c3ccc(C)cc3)CC2)c2cc3[n+](cc2c1O)CCc1cc2c(cc1-3)OCO2.[Cl-]	25.3	1.48	6.17	Active	290	2.13	5.1	68.5
COc1cc(CN2CCN(c3cccc(Cl)c3)CC2)c2cc3[n+](cc2c1O)CCc1cc2c(cc1-3)OCO2.[Cl-]	–	29.6	–	–	250	–	–	–
COc1cc(CN2CCN(c3ccccc3F)CC2)c2cc3[n+](cc2c1O)CCc1cc2c(cc1-3)OCO2.[Cl-]	–	9.16	–	–	5200	–	–	68.8
COc1cc(CN2CCN(c3ccccn3)CC2)c2cc3[n+](cc2c1O)CCc1cc2c(cc1-3)OCO2.[Cl-]	–	2.64	–	–	170	–	–	185
